Assay results taken from ChEMBL document CHEMBL4680113, “Tigliane Diterpenoids as a New Type of Antiadipogenic Agents Inhibit GRα-Dexras1 Axis in Adipocytes” (J Med Chem, 2019).
The source made the active and inactive calls. The calls are words filed in the database; no cut-off is given here.

What was measured:
3T3-L1 [1] = experiment: Lipid lowering activity in mouse 3T3-L1 cells assessed as reduction in adipogenic cocktail-induced triglyceride levels at 10 uM incubated for 6 days by GPO-POD assay; format: functional; details: for inhibition: time 6.0 day; for inhibition at 10 µM: 3T3-L1, 144 h, time 6 day
3T3-L1 [2] = experiment: Lipid lowering activity in mouse 3T3-L1 cells assessed as reduction in adipogenic cocktail-induced triglyceride levels at 1 to 10 uM by Oil-Red O staining; format: functional, cell-based; details: dose 1-10 µM
3T3-L1 [3] = experiment: Toxicity in mouse 3T3-L1 cells assessed as reduction in cell viability at 10 uM incubated for 6 days by LDH release assay; format: cell-based; details: 3t3-l1, 144 h, time 6 day
3T3-L1 [4] = experiment: Inhibition of adipogenic cocktail-induced PPARgamma mRNA expression in mouse 3T3-L1 cells at 1 uM by RT-qPCR analysis; format: functional, cell-based
3T3-L1 [5] = experiment: Inhibition of GR-alpha in mouse 3T3-L1 cells assessed as reduction in adipogenic cocktail-induced Dexras1 mRNA expression at 10 uM incubated for 4 hrs by RT-qPCR analysis; format: cell-based; details: filed as antagonist
3T3-L1 [6] = experiment: Lipid lowering activity in mouse 3T3-L1 cells assessed as reduction in adipogenic cocktail induced triglyceride levels at 1 uM incubated for 6 days by GPO-POD assay; format: functional, cell-based; details: time 6.0 day
3T3-L1 [7] = experiment: Inhibition of adipogenic cocktail-induced GR-alpha nuclear translocation in mouse 3T3-L1 cells at 10 uM after 8 hrs by Western blot analysis; format: cell-based; details: filed as antagonist
3T3-L1 [8] = experiment: Activation of adipogenic cocktail-induced PPARgamma mRNA expression in mouse 3T3-L1 cells at 1 uM by RT-qPCR analysis; format: functional, cell-based
3T3-L1 [9] = experiment: Activation of GR-alpha in mouse 3T3-L1 cells assessed as increase in adipogenic cocktail-induced Dexras1 mRNA expression at 10 uM incubated for 4 hrs by RT-qPCR analysis; format: cell-based; details: filed as agonist
3T3-L1 [10] = experiment: Lipid increasing activity in mouse 3T3-L1 cells assessed as increase in adipogenic cocktail induced triglyceride levels at 1 uM incubated for 6 days by GPO-POD assay; format: functional, cell-based; details: time 6.0 day

| SMILES | inhibition (3T3-L1 [1]) | inhibition (3T3-L1 [2]) | Activity (3T3-L1 [3]) | inhibition at 10 µM (3T3-L1 [1]) [%] | also measured |
| --- | --- | --- | --- | --- | --- |
| CC(=O)O[C@@H]1[C@H]2[C@@H](OC(=O)c3cccnc3)[C@@H](C)C[C@]2(OC(C)=O)[C@@H](OC(C)=O)[C@]2(C)OC[C@]13C(=O)[C@H](O)[C@@H]1C[C@](C)(OC(C)=O)[C@@H]1[C@@H]23 | inactive | Active | Non-Toxic |  |  |
| CCCC(=O)O[C@@H]1[C@@H]2[C@@H](OC(C)=O)[C@@]34CO[C@@](C)([C@H](OC(C)=O)[C@@]2(OC(C)=O)C[C@@H]1C)[C@@H]3[C@@H](C(C)(C)OC(C)=O)C=C[C@H]4OC(C)=O |  | Active | Non-Toxic | > 60 |  |
| CC(=O)O[C@@H]1[C@H]2[C@@H](OC(C)=O)[C@](C)(OC(C)=O)C[C@]2(OC(C)=O)[C@H](OC(=O)c2ccccc2)[C@]2(C)OC[C@]13[C@H](OC(C)=O)C=C[C@H](C(C)(C)OC(C)=O)[C@@H]23 |  | Active | Non-Toxic | > 60 |  |
| CCC(=O)O[C@@H]1[C@@H]2[C@@H](OC(C)=O)[C@@]34CO[C@@](C)([C@@H](OC(=O)C(C)CC)[C@@]2(OC(C)=O)C[C@@]1(C)OC(C)=O)[C@@H]3[C@@H](C(C)(C)OC(C)=O)C=C[C@H]4OC(C)=O (some centres not stated) |  | Active | Non-Toxic | > 60 |  |
| CC1=C[C@@H]2[C@H](C1=O)[C@H](O)C(C)=C[C@H]1[C@@H]3C(C)(C)[C@]3(OC(=O)C(C)C)[C@H](OC(=O)c3ccccc3)[C@@H](C)[C@]21O [EUPHODENDRIANE A] |  | Active | Non-Toxic | > 50 |  |
| CC(=O)O[C@@H]1[C@H]2[C@@H](OC(=O)c3cccnc3)[C@@H](C)C[C@]2(OC(C)=O)[C@@H](OC(C)=O)[C@]2(C)OC[C@]13C(=O)[C@H](OC(=O)c1ccccc1)[C@@H]1C[C@](C)(OC(C)=O)[C@@H]1[C@@H]23 | inactive |  |  |  |  |
| CCC(=O)O[C@@H]1[C@@H]2[C@@H](OC(C)=O)[C@@]34CO[C@@](C)([C@H](OC(C)=O)[C@@]2(OC(C)=O)C[C@@H]1C)[C@@H]3[C@@H]1[C@@H](C[C@]1(C)OC(C)=O)[C@@H](OC(=O)c1ccccc1)C4=O | Active | Active | Non-Toxic |  |  |
| CC(=O)OC[C@]12[C@H](OC(=O)c3ccccc3)[C@H]3[C@@H](OC(=O)c4cccnc4)[C@@H](C)C[C@]3(O)C(=O)[C@@](C)(OC(C)=O)[C@@H]1[C@@H]1[C@H](C[C@H]2OC(C)=O)C1(C)C |  | Active | Non-Toxic | > 60 |  |
| CC(=O)O[C@@H]1[C@@H]2[C@@H](OC(C)=O)[C@@]34CO[C@@](C)([C@H](OC(C)=O)[C@@]2(OC(C)=O)C[C@@H]1C)[C@@H]3[C@@H]1[C@@H](C[C@]1(C)OC(C)=O)[C@@H](OC(=O)C(C)C)C4=O | inactive |  |  |  |  |
| CC(=O)O[C@@H]1[C@@H]2[C@@H](OC(C)=O)[C@@]34CO[C@@](C)([C@H](OC(C)=O)[C@@]2(OC(C)=O)C[C@@H]1C)[C@@H]3[C@@H]1[C@@H](C[C@]1(C)OC(C)=O)[C@@H](OC(=O)c1ccccc1)C4=O | Active |  |  |  |  |
| CC1=C[C@H]2[C@@H]3C(C)(C)[C@]3(OC(=O)C(C)C)[C@H](OC(=O)c3ccccc3)[C@@H](C)[C@]2(O)[C@@H]2C=C(C)C(=O)C2=C1 |  | Active | Non-Toxic | > 50 |  |
| CC(=O)O[C@@H]1[C@@H]2[C@@H](OC(C)=O)[C@@]34CO[C@@](C)([C@H](OC(=O)c5ccccc5)[C@@]2(O)C[C@@H]1C)[C@@H]3[C@@H]1[C@@H](C[C@]1(C)OC(C)=O)[C@@H](OC(=O)c1ccccc1)C4=O | inactive |  |  |  |  |
| CC(=O)O[C@@H]1[C@H]2[C@@H](OC(=O)c3cccnc3)[C@@H](C)C[C@]2(OC(C)=O)[C@@H](OC(C)=O)[C@]2(C)OC[C@]13C(=O)[C@@H](O)[C@@H]1C[C@](C)(OC(C)=O)[C@@H]1[C@@H]23 | inactive |  |  |  |  |
| CCC(=O)O[C@@H]1[C@@H]2[C@@H](OC(=O)c3ccccc3)[C@@]3(COC(C)=O)[C@@H]([C@@H]4[C@H](C[C@H]3OC(C)=O)C4(C)C)[C@](C)(OC(C)=O)C(=O)[C@@]2(O)C[C@@H]1C |  | Active | Non-Toxic | > 60 |  |
| CCC(=O)O[C@@H]1[C@@H]2[C@@H](OC(C)=O)[C@@]34CO[C@@](C)([C@H](OC(C)=O)[C@@]2(OC(C)=O)C[C@@H]1C)[C@@H]3[C@@H]1[C@@H](C[C@]1(C)OC(C)=O)[C@@H](OC(=O)C(C)CC)C4=O (some centres not stated) | inactive |  |  |  |  |
| CC#C[C@]1(O)CC[C@H]2[C@@H]3CCC4=CC(=O)CCC4=C3[C@@H](c3ccc(N(C)C)cc3)C[C@@]21C |  |  |  |  | inhibition (3T3-L1 [4]): Active; inhibition (3T3-L1 [5]): Active; inhibition (3T3-L1 [6]): Active; inhibition (3T3-L1 [7]): Active |
| CCC(=O)O[C@@H]1[C@@H]2[C@@H](OC(C)=O)[C@@]34CO[C@@](C)([C@H](OC(=O)c5ccccc5)[C@@]2(OC(C)=O)C[C@@H]1C)[C@@H]3[C@@H](C(C)(C)OC(C)=O)C=CC4=O | Active |  |  |  |  |
| CCC(=O)O[C@@H]1[C@@H]2[C@@H](OC(C)=O)[C@@]34CO[C@@](C)([C@H](OC(C)=O)[C@@]2(O)C[C@@H]1C)[C@@H]3[C@@H]1[C@@H](C[C@]1(C)OC(C)=O)[C@@H](OC(=O)c1ccccc1)C4=O | inactive |  |  |  |  |
| CC(=O)O[C@@H]1[C@@H]2[C@@H](OC(C)=O)[C@@]34CO[C@@](C)([C@H](OC(C)=O)[C@@]2(OC(C)=O)C[C@@H]1C)[C@@H]3[C@@H]1[C@@H](C[C@]1(C)OC(C)=O)[C@H](O)C4=O |  | Active | Non-Toxic | > 60 |  |
| C[C@H]1C[C@@H]2[C@H]([C@@H](O)C[C@@]3(C)[C@H]2CC[C@]3(O)C(=O)CO)[C@@]2(C)C=CC(=O)C=C12 |  |  |  |  | Activity (3T3-L1 [8]): Active; Activity (3T3-L1 [9]): Active; Activity (3T3-L1 [10]): Active |
| CCCC(=O)O[C@@H]1[C@@H]2[C@@H](OC(C)=O)[C@@]34CO[C@@](C)([C@H](OC(C)=O)[C@@]2(OC(C)=O)C[C@@H]1C)[C@@H]3[C@@H]1[C@@H](C[C@]1(C)OC(C)=O)[C@@H](OC(=O)c1ccccc1)C4=O | Active |  |  |  |  |
| CC(=O)O[C@@H]1[C@H]2[C@@H](OC(=O)c3cccnc3)[C@@H](C)C[C@]2(OC(C)=O)[C@@H](OC(C)=O)[C@]2(C)OC[C@]13C(=O)[C@H](OC(=O)C(C)C)[C@@H]1C[C@](C)(OC(C)=O)[C@@H]1[C@@H]23 | inactive |  |  |  |  |
| CC(=O)O[C@@H]1[C@H]2[C@@H](OC(C)=O)[C@](C)(O)C[C@]2(OC(C)=O)[C@H](OC(=O)c2ccccc2)[C@]2(C)OC[C@]13[C@H](OC(C)=O)C=C[C@H](C(C)(C)OC(C)=O)[C@@H]23 |  | Active | Non-Toxic | > 60 |  |
| CC(=O)O[C@@H]1[C@]2(C)OC[C@]3(C(=O)C=C[C@H](C(C)(C)OC(C)=O)[C@@H]23)[C@H](OC(C)=O)[C@H]2[C@@H](OC(=O)c3cccnc3)[C@@H](C)C[C@@]21OC(C)=O | inactive |  |  |  |  |
| CCC(=O)O[C@@H]1[C@@H]2[C@@H](OC(C)=O)[C@@]34CO[C@@](C)([C@H](OC(C)=O)[C@@]2(OC(C)=O)C[C@@H]1C)[C@@H]3[C@@H]1[C@@H](C[C@]1(C)OC(C)=O)[C@@H](O)C4=O | Active | Active | Non-Toxic |  |  |
| CCC(=O)O[C@@H]1[C@@H]2[C@@H](OC(C)=O)[C@@]34CO[C@@](C)([C@H](OC(C)=O)[C@@]2(OC(C)=O)C[C@@H]1C)[C@@H]3[C@@H]1[C@@H](C[C@]1(C)OC(C)=O)[C@@H](OC(=O)C(C)C)C4=O |  | Active | Non-Toxic | > 60 |  |
